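Exposure lasted 48 hours, with cells grown in 96-well plates and compounds tested at five concentrations. TGI marks complete inhibition of growth.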
How the values were obtained:
Assay in all cases: growth of human tumour cells (NCI), 48 h
BT-549 breast = tested on: BT-549 breast
MDA-N = tested on: MDA-N
K-562 leukemia = tested on: K-562 leukemia
HS 578T breast = tested on: HS 578T breast
UACC-257 melanoma = tested on: UACC-257 melanoma
SW-620 colon = tested on: SW-620 colon
OVCAR-3 ovarian = tested on: OVCAR-3 ovarian
LOX IMVI melanoma = tested on: LOX IMVI melanoma
HCT-15 colon = tested on: HCT-15 colon
A498 renal = tested on: A498 renal
NCI-H460 lung = tested on: NCI-H460 lung
SN12C renal = tested on: SN12C renal
CAKI-1 renal = tested on: CAKI-1 renal
OVCAR-4 ovarian = tested on: OVCAR-4 ovarian
MDA-MB-231 breast = tested on: MDA-MB-231 breast
KM12 colon = tested on: KM12 colon
SNB-19 CNS = tested on: SNB-19 CNS
MOLT-4 leukemia = tested on: MOLT-4 leukemia
DU-145 prostate = tested on: DU-145 prostate
OVCAR-5 ovarian = tested on: OVCAR-5 ovarian
TK-10 renal = tested on: TK-10 renal
SK-MEL-5 melanoma = tested on: SK-MEL-5 melanoma
SK-MEL-28 melanoma = tested on: SK-MEL-28 melanoma
786-0 renal = tested on: 786-0 renal
T-47D breast = tested on: T-47D breast
SF-539 CNS = tested on: SF-539 CNS
SF-268 CNS = tested on: SF-268 CNS
SNB-75 CNS = tested on: SNB-75 CNS
HOP-92 NSCLC = tested on: HOP-92 NSCLC
SR leukemia = tested on: SR leukemia
UO-31 renal = tested on: UO-31 renal
NCI-H23 lung = tested on: NCI-H23 lung
HCC-2998 colon = tested on: HCC-2998 colon
A549 NSCLC = tested on: A549 NSCLC
PC-3 prostate = tested on: PC-3 prostate
MCF7 breast = tested on: MCF7 breast
CCRF-CEM leukemia = tested on: CCRF-CEM leukemia
HL-60(TB) leukemia = tested on: HL-60(TB) leukemia
RPMI-8226 leukemia = tested on: RPMI-8226 leukemia
ACHN renal = tested on: ACHN renal
SK-OV-3 ovarian = tested on: SK-OV-3 ovarian
HCT-116 colon = tested on: HCT-116 colon
SK-MEL-2 melanoma = tested on: SK-MEL-2 melanoma
SF-295 CNS = tested on: SF-295 CNS
M14 melanoma = tested on: M14 melanoma
UACC-62 melanoma = tested on: UACC-62 melanoma
RXF 393 renal = tested on: RXF 393 renal
COLO 205 colon = tested on: COLO 205 colon
U251 CNS = tested on: U251 CNS
MDA-MB-435 = tested on: MDA-MB-435
OVCAR-8 ovarian = tested on: OVCAR-8 ovarian
IGROV1 ovarian = tested on: IGROV1 ovarian
EKVX NSCLC = tested on: EKVX NSCLC
HOP-62 NSCLC = tested on: HOP-62 NSCLC
NCI-H522 lung = tested on: NCI-H522 lung
NCI-H226 lung = tested on: NCI-H226 lung
NCI/ADR-RES ovarian = tested on: NCI/ADR-RES ovarian
MALME-3M melanoma = tested on: MALME-3M melanoma
HT29 colon = tested on: HT29 colon

Measured: TGI

Cc1c(C)c(C)c(-n2c(=O)n(C)c(=O)n2C(C)(C)C)c(C)c1C
> 100 µM: BT-549 breast | MDA-N | K-562 leukemia | HS 578T breast | UACC-257 melanoma | SW-620 colon | OVCAR-3 ovarian | LOX IMVI melanoma | HCT-15 colon | A498 renal | NCI-H460 lung | SN12C renal | CAKI-1 renal | OVCAR-4 ovarian | MDA-MB-231 breast | KM12 colon | SNB-19 CNS | MOLT-4 leukemia | DU-145 prostate | OVCAR-5 ovarian | TK-10 renal | SK-MEL-5 melanoma | SK-MEL-28 melanoma | 786-0 renal | T-47D breast | SF-539 CNS | SF-268 CNS | SNB-75 CNS | HOP-92 NSCLC | SR leukemia | UO-31 renal | NCI-H23 lung | HCC-2998 colon | A549 NSCLC | PC-3 prostate | MCF7 breast | CCRF-CEM leukemia | HL-60(TB) leukemia | RPMI-8226 leukemia | ACHN renal | SK-OV-3 ovarian | HCT-116 colon | SK-MEL-2 melanoma | SF-295 CNS | M14 melanoma | UACC-62 melanoma | RXF 393 renal | COLO 205 colon | U251 CNS | MDA-MB-435

CC1(C)CCc2c(cc3c(c2O)CCC(C)(C)O3)O1
98.3 µM: SK-MEL-2 melanoma
> 100 µM: BT-549 breast | MDA-N | K-562 leukemia | OVCAR-8 ovarian | HS 578T breast | IGROV1 ovarian | UACC-257 melanoma | SW-620 colon | OVCAR-3 ovarian | HCT-15 colon | EKVX NSCLC | A498 renal | NCI-H460 lung | HOP-62 NSCLC | SN12C renal | CAKI-1 renal | OVCAR-4 ovarian | MDA-MB-231 breast | KM12 colon | SNB-19 CNS | MOLT-4 leukemia | DU-145 prostate | NCI-H522 lung | OVCAR-5 ovarian | TK-10 renal | SK-MEL-5 melanoma | SK-MEL-28 melanoma | T-47D breast | SF-539 CNS | SF-268 CNS | SNB-75 CNS | SR leukemia | UO-31 renal | NCI-H23 lung | HCC-2998 colon | A549 NSCLC | PC-3 prostate | NCI-H226 lung | NCI/ADR-RES ovarian | MCF7 breast | CCRF-CEM leukemia | ACHN renal | SK-OV-3 ovarian | HCT-116 colon | MALME-3M melanoma | SF-295 CNS | M14 melanoma | UACC-62 melanoma | COLO 205 colon | U251 CNS | HT29 colon
77.9 µM: HL-60(TB) leukemia

From PubChem BioAssay (NCI)
